Reference: article PMC10892120, “Design, Synthesis and Biological Assessment of N′-(2-Oxoindolin-3-ylidene)-6-methylimidazo[2,1-b]thiazole-5-carbohydrazides as Potential Anti-Proliferative Agents toward MCF-7 Breast Cancer” (Pharmaceuticals, 2024)

Experiments:
MCF-7 breast cell line = experiment: MTT assay, anti-proliferative activity toward MCF-7; format: cell-based; conditions: Homo sapiens, MCF7
Procedure: . The developed compounds were evaluated in vitro using the MTT cell viability assay following the published techniques (Supplementary Data, page 42). […]
(§1) The 96 well tissue culture plate was seeded with 1 X 10^5 cells / ml (100 ul / well) and cultured at 37 degrees Celsius for 24 hours to form a full monolayer sheet. After forming a confluent sheet of cells, growth medium was decanted from 96 well micro titer plates, the cell monolayer was washed twice with wash media, and two-fold dilutions of the tested sample were prepared in RPMI medium with 2% serum (maintenance medium). In each well, 0.1 ml of each dilution was examined, with three wells serving as controls and receiving only maintenance media.
(§2) The plate was incubated at 37 degrees Celsius and then analyzed. Cells were examined for any physical evidence of toxicity, such as partial or total monolayer loss, rounding, shrinkage, or cell granulation. MTT solution (5mg/ml in PBS) was prepared (BIO BASIC CANADA INC), and 20ul MTT solution was added to each well. Shake the MTT into the medium for 5 minutes at 150rpm on a shaking table. Incubate for 4 hours (37°C, 5% CO2) to allow the MTT to be digested. Remove the media. (If required, dry plate on paper towels to remove residue. In 200ul DMSO, resuspend formazan (MTT metabolic product). Shake at 150rpm for 5 minutes to properly mix the formazan into the solvent. At 560nm, measure optical density and subtract background at 620nm. The optical density should be proportional to the number of cells. MCF-7 and MCF-10A cell lines were provided with 10% fetal bovine serum (FBS, Sigma-Aldrich, MO, USA). Data are presented as the mean of the IC50 values ± SD from three different experiments. […]

MCF-10A = experiment: MTT assay, cytotoxicity toward MCF-10A; format: cell-based; conditions: Homo sapiens
Procedure: The developed compounds were evaluated in vitro using the MTT cell viability assay following the published techniques (Supplementary Data, page 42). […]
as §1, §2

Bax = experiment: RT-PCR gene expression in treated MCF-7 cells: Bax; format: cell-based; conditions: treated MCF-7 cells vs untreated control MCF-7 (=1)
Procedure: (§3) The gene expression levels of apoptosis genes in MCF-7 cells were measured using RT-PCR to validate the apoptosis-inducing behaviors of the potent lead compound 6i in MCF-7 cells.
(§4) The gene expression levels of apoptosis genes were evaluated in MCF-7 cells using the following approaches in the Supplementary Data, page 43.
(§5) Inhibitor solution of each well labeled as “Test Inhibitor”. For the “Positive Control" and “Blank”, add 5 μl of the same solution without inhibitor (Inhibitor buffer). Prepare 3 ml of 1x Kinase Buffer 1 by mixing 600 μl of 5x Kinase Buffer 1 with 2400 μl water. 3 ml of 1x Kinase Buffer 1 is sufficient for 100 reactions. To the wells designated as "Blank", add 20 μl of 1x Kinase Buffer 1.
(§6) Thaw VEGFR2 enzyme on ice. Upon first thaw, briefly spin tube containing enzyme to recover full content of the tube. Calculate the amount of VEGFR2 required for the assay and dilute enzyme to 1 ng/μl with 1x Kinase Buffer 1. Store remaining undiluted enzyme in aliquots at -80°C. Note:
(§7) VEGFR2 enzyme is sensitive to freeze/thaw cycles. Avoid multiple freeze/thaw cycles. […]
(§8) use thawed aliquots or diluted enzyme. […]
(§9) thoroughly, and then centrifuge at 4°C to collect contents to the bottom of the tube. […] Preparation of a reaction cocktail is crucial in quantitative PCR applications to reduce pipetting errors and maximize assay precision and accuracy. […]

Caspase-8 = experiment: RT-PCR gene expression in treated MCF-7 cells: caspase 8; format: cell-based; conditions: treated MCF-7 cells vs untreated control MCF-7 (=1)
Procedure: as §3, §4, §5, §6, §7, §8, §9

Caspase-9 = experiment: RT-PCR gene expression in treated MCF-7 cells: caspase 9; format: cell-based; conditions: treated MCF-7 cells vs untreated control MCF-7 (=1)
Procedure: as §3, §4, §5, §6, §7, §8, §9

Bcl-2 = experiment: RT-PCR gene expression in treated MCF-7 cells: Bcl-2; format: cell-based; conditions: treated MCF-7 cells vs untreated control MCF-7 (=1)
Procedure: as §3, §4, §5, §6, §7, §8, §9

SMILES: CCCCN1C(=O)C(=NNC(=O)c2c(C)nc3sccn23)c2ccccc21 [Compound 6i, N′-(1-Butyl-2-oxoindolin-3-ylidene)-6-methylimidazo[2,1-b]thiazole-5-carbohydrazide]
- IC50 (MCF-7 breast cell line): 8.38 ± 0.62 µM
- IC50 (MCF-10A): 54.6 ± 1.29 µM
- RT-PCR Fold Change Bax (Bax): 4.337 fold
- RT-PCR Fold Change Caspase-8 (Caspase-8): 2.727 fold
- RT-PCR Fold Change Caspase-9 (Caspase-9): 4.947 fold
- RT-PCR Fold Change Bcl-2 (Bcl-2): 0.359 fold
- melting point: 250 to 251 °C
